Entries after “also recorded” stand apart in the source; their conditions may differ.
Experiments:
Tg2576 mice = test: General health and blood parameters of Tg2576 mice on chronic MK-591 diet; assay type: in vivo, mouse
Protocol: The Tg2576 transgenic mice expressing human APP with the Swedish mutation (K670N/M671L) used in these studies were previously described (Pratico D et al. J Neurosci 2001, 21(12):4183-4187). The mice were genotyped by polymerase chain reaction (PCR) analysis using tail DNA and kept in a pathogen-free environment, one 12-hour light/dark cycle and had access to food and water ad libitum. All the experiments presented herein were performed with female mice. Starting at 7 months of age, mice were randomized to receive MK-591 (40 mg/kg weight) (n=11) or vehicle (n=9) in their chow diet for 8 months until they were 15 months old. Considering that each mouse eats on average 5 g/day of chow diet and the diet is formulated for 320 mg MK-591 pwer kg diet (Harlan Teklad, Wis., USA), the final dose of the active drug was approximately 40 mg/kg weight/day.
Starting at seven months of age Tg2576 mice were randomized to receive MK-591 (320 mg/kg diet) or vehicle in their chow diet for 8 months before being sacrificed. Considering that each mouse eats on average 5 g/day of chow diet, the final dose of the active drug was approximately 40 mg/kg weight/day. By the end of the study, body weight, total plasma cholesterol, triglycerides and blood cell counts were not different between the two groups (not shown).

3xTg mice = test: Electrophysiology of hippocampal slices (fEPSP, PPF, LTP) of 3xTg mice; assay type: in vivo, mouse; conditions: 3xTg-MK-591 mice, mean +/- SEM
Protocol: The 3xTg mice harboring a mutant amyloid precursor protein (APP; KM670/671NL), a human mutant PS1 (M146V) knockin, and tau (P301L) transgenes, wild type mice (WT), and mice genetically deficient for FLAPKO (FLAPKO) used in this study were reported previously (Oddo S et al. Neuron 2003, 39:409-421; Byrum R S et al. J Exp Med 1997, 185:1065-1075). All the animals were backcrossed 10 times on the same genetic background C57BL6/SJL. The FLAPKO mice were crossbred several times with 3xTg mice to obtain founder animals (3xTg/FLAPKO), which were then crossed with each other. The animals from these crosses were used for the studies. […]
Six month old mice (n=# slices/# animals): WT (n=23/8); 3xTg (n=21/7); 3xTg-FLAPKO (n=21/6); 3xTg plus MK-591 (n=10/3) were sacrificed by rapid decapitation and brains were put into ice-cold artificial cerebral spinal fluid (CSF) in which sucrose (248 mM) was substituted for NaCl. […] We recorded field excitatory postsynaptic potentials (fEPSPs) from the CAl stratum radiatum by using an extracellular glass pipette ([…]) filled with ACSF. […] Baseline was recorded for 20 mins prior to tetanization with pulses every 30 seconds. […] The fEPSP rise/slope (mV/ms) between 30 and 90% was measured offline using Clampfit 10.3 (Molecular Devices, LLC) and normalized to the mean rise/slope of the baseline. […]

[1] = tested on: γ-secretase-mediated cleavage of Notch; test: γ-secretase-mediated cleavage of Notch (NICD western blot) in transfected N2A-APPswe cells; assay type: cell-based; conditions: N2A-APPswe cells transfected with Myc-tagged mAE-Notch-1, 24-hour incubation vs vehicle
Protocol: For transfection studies, N2A-APPswe cells were transfected with 1 μg Myc-tagged mAE-Notch-1 complementary DNA overnight (a generous gift from Dr. L. D'Adamio, Albert Einstein Medical College, NY) by using Lipofectamine 2000 (Invitrogen). The media were removed and fresh media containing MK-591, L685, 458 or vehicle was added. After a 24-hour incubation, cell lysates were collected and Notch intracellular domain (NICD) expression levels assayed by western blot analysis.

[2] = MK-591 approximately 40 mg/kg weight/day for 8 months vs vehicle, end of study
[3] = MK-591 approximately 40 mg/kg weight/day in chow for 8 months

Row | Structure (SMILES) | blood cell counts (Tg2576 mice; [2]) | total plasma cholesterol (Tg2576 mice; [2]) | triglycerides (Tg2576 mice; [2]) | overall general health (Tg2576 mice; [3]) | post-mortem macroscopic pathology of organs (spleen, liver, thymus, ileum) (Tg2576 mice; [3]) | body weight (Tg2576 mice; MK-591 approximately 40 mg/kg weight/day in chow for 8 months vs vehicle) | LTP magnitude as percentage of baseline, 0-10 minutes post-tetanus (3xTg mice; n=10 slices, 3xTg 159.9%, WT 274.6%) [%+/−13.2%] | LTP magnitude as percentage of baseline, 170-180 minutes post-tetanus (3xTg mice; 3xTg 121.0%, WT 202.6%) [%+/−9.4%] | Notch intracellular domain (NICD) levels [1]
1 | CC(C)(C)Sc1c(CC(C)(C)C(=O)O)n(Cc2ccc(Cl)cc2)c2ccc(OCc3ccc4ccccc4n3)cc12 [MK-591, 3-[3-tert-butylsulfanyl-1-[(4-chlorophenyl)methyl]-5-(quinolin-2-ylmethoxy)indol-2-yl]-2,2,-dimethylpropanoic acid] | not different | not different | not different | No macroscopic effect | no sign of macroscopic pathology | no significant difference; also recorded: not different | 272.5 | 202.5 | –
2 | CC(C)C[C@H](NC(=O)[C@H](Cc1ccccc1)C[C@@H](O)[C@H](Cc1ccccc1)NC(=O)OC(C)(C)C)C(=O)N[C@@H](Cc1ccccc1)C(N)=O [L685,458] | – | – | – | – | – | – | – | – | significant reduction

Source: patent publication US20130310421A1, “TREATMENT OF AMYLOID BETA AMYLOIDOSIS” (Temple University - Of The Commonwealth System of Higher …, priority 2012, published 2013)
